From BindingDB's records for doi:10.1111/j.1747-0285.2009.00857.x (Istituto Di Biostrutture E Bioimmagini-Cnr, 2009)

What was measured:
Assay in all cases: Inhibition Assay
Conditions in all cases: pH 7.5; 20 °C
Carbonic anhydrase 1 = Carbonic anhydrase 1 (Homo sapiens, UniProt P00915)
From the text: (§1) Inhibition assay using carbonic anhydrases with an SX.18MV-R, a stopped-flow instrument from Applied Photophysics was used for assaying the CA catalyzed CO2 hydration activity.

Carbonic anhydrase 12 = Carbonic anhydrase 12 (Homo sapiens, UniProt O43570)
From the text: as §1

Carbonic anhydrase 3 = Carbonic anhydrase 3 (Homo sapiens, UniProt P07451)
From the text: as §1

Carbonic anhydrase 7 = Carbonic anhydrase 7 (Homo sapiens, UniProt P43166)
From the text: as §1

Carbonic anhydrase 13 = Carbonic anhydrase 13 (Homo sapiens, UniProt Q8N1Q1)
From the text: as §1

Carbonic anhydrase 14 = Carbonic anhydrase 14 (Homo sapiens, UniProt Q9ULX7)
From the text: as §1

Carbonic anhydrase 4 = Carbonic anhydrase 4 (Homo sapiens, UniProt P22748)
From the text: as §1

[1] = biological target: Carbonic anhydrase 5A, mitochondrial (Homo sapiens, UniProt P35218)
From the text: as §1

[2] = biological target: Carbonic anhydrase 5B, mitochondrial (Homo sapiens, UniProt Q9Y2D0)
From the text: as §1

Carbonic anhydrase 2 = Carbonic anhydrase 2 (Homo sapiens, UniProt P00918)
From the text: as §1

Carbonic anhydrase 6 = Carbonic anhydrase 6 (Homo sapiens, UniProt P23280)
Sequence of Carbonic anhydrase 6 (P23280 whole entry): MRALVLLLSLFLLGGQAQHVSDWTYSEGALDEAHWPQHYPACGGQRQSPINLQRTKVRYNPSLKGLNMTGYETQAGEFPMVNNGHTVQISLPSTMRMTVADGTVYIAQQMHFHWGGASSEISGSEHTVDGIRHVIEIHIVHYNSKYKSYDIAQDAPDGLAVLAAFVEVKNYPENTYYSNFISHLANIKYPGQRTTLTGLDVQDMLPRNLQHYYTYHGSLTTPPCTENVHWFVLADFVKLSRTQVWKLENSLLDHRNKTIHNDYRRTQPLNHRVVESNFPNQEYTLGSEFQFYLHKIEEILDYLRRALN
From the text: as §1

Sequence of Carbonic anhydrase 3 (P07451 whole entry): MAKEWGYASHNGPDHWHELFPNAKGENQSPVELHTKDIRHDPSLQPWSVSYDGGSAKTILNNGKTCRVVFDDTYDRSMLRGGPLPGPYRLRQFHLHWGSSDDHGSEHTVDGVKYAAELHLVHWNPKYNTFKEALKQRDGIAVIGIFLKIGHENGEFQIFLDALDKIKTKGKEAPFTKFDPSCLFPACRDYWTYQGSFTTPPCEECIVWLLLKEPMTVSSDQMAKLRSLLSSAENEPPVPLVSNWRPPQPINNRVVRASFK
Sequence of Carbonic anhydrase 5A, mitochondrial (P35218 whole entry): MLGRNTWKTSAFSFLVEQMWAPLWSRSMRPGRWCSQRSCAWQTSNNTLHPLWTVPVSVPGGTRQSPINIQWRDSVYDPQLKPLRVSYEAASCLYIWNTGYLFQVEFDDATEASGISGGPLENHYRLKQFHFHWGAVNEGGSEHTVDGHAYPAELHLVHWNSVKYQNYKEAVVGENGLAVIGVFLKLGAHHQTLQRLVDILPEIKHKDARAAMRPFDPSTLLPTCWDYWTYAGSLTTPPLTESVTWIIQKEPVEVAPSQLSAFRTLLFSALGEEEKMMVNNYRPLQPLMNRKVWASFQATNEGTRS
Sequence of Carbonic anhydrase 14 (Q9ULX7 whole entry): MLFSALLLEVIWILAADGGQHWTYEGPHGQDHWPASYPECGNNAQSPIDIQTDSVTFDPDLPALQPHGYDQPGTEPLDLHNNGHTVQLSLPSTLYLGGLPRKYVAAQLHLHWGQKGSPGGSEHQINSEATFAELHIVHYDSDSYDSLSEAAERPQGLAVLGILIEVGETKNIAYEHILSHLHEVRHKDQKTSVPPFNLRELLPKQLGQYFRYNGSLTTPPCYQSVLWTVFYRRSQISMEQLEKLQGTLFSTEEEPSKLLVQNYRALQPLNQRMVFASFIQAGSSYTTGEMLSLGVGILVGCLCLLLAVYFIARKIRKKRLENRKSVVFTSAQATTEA
Sequence of Carbonic anhydrase 12 (O43570 whole entry): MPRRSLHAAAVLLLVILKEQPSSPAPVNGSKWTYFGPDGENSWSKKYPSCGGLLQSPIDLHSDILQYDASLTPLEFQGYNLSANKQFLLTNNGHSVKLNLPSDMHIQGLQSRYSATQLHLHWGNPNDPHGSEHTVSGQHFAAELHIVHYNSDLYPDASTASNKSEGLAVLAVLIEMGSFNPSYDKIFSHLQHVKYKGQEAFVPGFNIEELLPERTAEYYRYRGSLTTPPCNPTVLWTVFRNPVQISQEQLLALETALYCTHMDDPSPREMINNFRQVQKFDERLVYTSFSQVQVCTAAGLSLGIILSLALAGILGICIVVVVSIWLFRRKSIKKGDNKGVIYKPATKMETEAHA
Sequence of Carbonic anhydrase 13 (Q8N1Q1 whole entry): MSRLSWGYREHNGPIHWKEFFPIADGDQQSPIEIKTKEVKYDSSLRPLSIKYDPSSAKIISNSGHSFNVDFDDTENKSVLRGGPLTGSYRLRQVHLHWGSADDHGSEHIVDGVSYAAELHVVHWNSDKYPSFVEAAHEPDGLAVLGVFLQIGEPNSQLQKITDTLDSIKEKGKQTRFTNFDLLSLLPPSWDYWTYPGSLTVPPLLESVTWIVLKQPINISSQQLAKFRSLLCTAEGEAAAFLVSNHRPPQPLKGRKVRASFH
Sequence of Carbonic anhydrase 1 (P00915 whole entry): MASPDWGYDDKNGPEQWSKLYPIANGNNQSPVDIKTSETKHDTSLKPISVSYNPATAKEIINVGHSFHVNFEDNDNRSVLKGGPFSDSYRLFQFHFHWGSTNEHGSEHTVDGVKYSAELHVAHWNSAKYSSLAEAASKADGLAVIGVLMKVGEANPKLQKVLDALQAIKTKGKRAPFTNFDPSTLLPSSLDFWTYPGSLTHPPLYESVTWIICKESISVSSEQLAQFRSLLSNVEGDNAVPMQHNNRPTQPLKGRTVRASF
Sequence of Carbonic anhydrase 4 (P22748 whole entry): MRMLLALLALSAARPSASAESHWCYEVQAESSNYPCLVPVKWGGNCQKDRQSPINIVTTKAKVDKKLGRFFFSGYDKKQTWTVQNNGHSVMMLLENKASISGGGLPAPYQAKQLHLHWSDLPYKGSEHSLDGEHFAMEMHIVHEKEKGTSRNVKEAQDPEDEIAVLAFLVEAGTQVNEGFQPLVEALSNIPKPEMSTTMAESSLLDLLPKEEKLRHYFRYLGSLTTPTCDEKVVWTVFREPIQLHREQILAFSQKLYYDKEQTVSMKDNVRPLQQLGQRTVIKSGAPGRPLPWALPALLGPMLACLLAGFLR
Sequence of Carbonic anhydrase 5B, mitochondrial (Q9Y2D0 whole entry): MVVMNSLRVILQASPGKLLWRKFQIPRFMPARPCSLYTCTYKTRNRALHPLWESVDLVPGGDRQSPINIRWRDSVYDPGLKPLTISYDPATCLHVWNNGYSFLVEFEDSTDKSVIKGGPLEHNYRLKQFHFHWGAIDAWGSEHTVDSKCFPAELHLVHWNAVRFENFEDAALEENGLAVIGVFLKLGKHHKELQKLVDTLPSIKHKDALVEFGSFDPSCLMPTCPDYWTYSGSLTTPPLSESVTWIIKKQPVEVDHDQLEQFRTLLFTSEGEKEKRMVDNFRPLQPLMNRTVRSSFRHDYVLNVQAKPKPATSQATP
Sequence of Carbonic anhydrase 7 (P43166 whole entry): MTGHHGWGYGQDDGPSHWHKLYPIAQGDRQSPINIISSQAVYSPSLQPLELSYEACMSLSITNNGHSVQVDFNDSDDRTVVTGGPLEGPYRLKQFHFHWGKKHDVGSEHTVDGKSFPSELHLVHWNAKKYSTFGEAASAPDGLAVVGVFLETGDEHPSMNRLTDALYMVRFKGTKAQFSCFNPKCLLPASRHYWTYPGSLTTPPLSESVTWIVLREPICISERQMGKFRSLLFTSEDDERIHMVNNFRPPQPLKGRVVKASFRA

Row | Ki (Carbonic anhydrase 1) [nM] | Ki (Carbonic anhydrase 12) [nM] | SMILES | Ki (Carbonic anhydrase 3) [nM] | Ki (Carbonic anhydrase 7) [nM] | Ki (Carbonic anhydrase 13) [nM] | Ki (Carbonic anhydrase 14) [nM] | Ki (Carbonic anhydrase 4) [nM] | Ki [1] [nM] | Ki [2] [nM] | Ki (Carbonic anhydrase 2) [nM] | Ki (Carbonic anhydrase 6) [nM]
1 | 850 | 0.9 | NS(=O)(=O)c1nnc(NC(=O)[C@]23C[C@H]4C[C@H](C[C@H](C4)C2)C3)s1 [Investigational agent, 4] | 310000 | 0.5 | – | – | – | – | – | – | –
2 | – | – | NS(=O)(=O)c1ccc(N2CCCCS2(=O)=O)cc1 [Ospolot] | 630000 | – | 1450 | 1540 | 95 | 81 | 91 | – | –
3 | 250 | 3.8 | CC1(C)O[C@@H]2[C@@H](CC[C@@]3(COS(N)(=O)=O)OC(C)(C)O[C@@H]23)O1 | 780000 | – | 47 | 1460 | 4900 | 63 | 30 | – | 45

Row | SMILES | Ki (Carbonic anhydrase 1) [nM] | Ki (Carbonic anhydrase 12) [nM] | Ki (Carbonic anhydrase 3) [nM] | Ki (Carbonic anhydrase 7) [nM] | Ki (Carbonic anhydrase 13) [nM] | Ki (Carbonic anhydrase 14) [nM] | Ki (Carbonic anhydrase 4) [nM] | Ki [1] [nM] | Ki [2] [nM] | Ki (Carbonic anhydrase 2) [nM] | Ki (Carbonic anhydrase 6) [nM]
4 | NS(=O)(=O)c1nnc(NC(=O)N[C@]23C[C@H]4C[C@H](C[C@H](C4)C2)C3)s1 [Investigational agent, 5] | 810 | 4.7 | 330000 | 1.3 | 39 | 15 | 30 | 135 | 45 | 13 | 31
